Seven compounds from EP3271365B1, “BI[…] AGENTS CONTAINING THE CTI PHARMACOPHORE” (Pfizer Inc., priority 2015, dated 2016) can be followed below.

Holding throughout (assay): Cytotoxicity assay for payloads (MTS cell viability)
Holding throughout (assay type): cell-based

In experiment [1] the test system is N87 (human gastric carcinoma derived from metastatic liver site). The note with it: 96 h, N87 cells, incubated four days, read-out: Free Payload Potencies N87 (IC50). As to the method:
(§1) Cancer cell lines were obtained from ATCC (Manassas, VA). N87 (human gastric carcinoma derived from metastatic liver site). HL60 (leukemia) and MDA-MB-361 DYT2 (human breast carcinoma MDA-MB-361) were grown in RPMI 1640 media . All media were supplemented with 10% fetal bovine serum, 1% sodium pyruvate, and 1% L-glutamine (Invitrogen, Grand Island, NY). Human umbilical vein endothelial cells (HUVEC) were obtained from Lonza (Allendale, NJ) and maintained in EGM2 media supplemented with EGM-2 SingleQuots (Lonza # CC-4176). All cells were maintained in a humidified incubator (37°C, 5% CO2).
(§2) Cells in 100 µl medium were cultured in a 96-well plate. Cancer cell lines treated with the indicated compounds by adding 50 µl of 3X stocks in duplicate at 10 concentrations. Cells were incubated with compounds for four days, then 30 µl of CellTiter® 96 AQueous One MTS Solution (Promega Cat # G3582) was added to the cells, incubated 1.5 hr at 37°C, then absorbance measured at 490 nm on a Victor plate reader (Perkin Elmer, Waltham, MA). Relative cell viability was determined as a percentage of untreated control wells. IC50 values were calculated using four parameter logistic model #203 with XLfit v4.2 (IDBS, Guildford, Surry, UK).

Experiment [2] deals with MDA-MB-361 DYT2 (human breast carcinoma MDA-MB-361). The note with it: 96 h, MDA-MB-361 DYT2 cells, incubated four days, read-out: Free Payload Potencies DYT2 (IC50). On the procedure:
as §1, §2

A further experiment concerns HL60 (leukemia). The note with it: Homo sapiens, HL-60, 96 h, HL60 cells, incubated four days, read-out: Free Payload Potencies HL60 (IC50). As to the method: as §1, §2

With `CC(=O)Oc1cc2c(c3c(C)csc13)[C@H](CCl)CN2C(=O)C12CC(C(=O)N3C[C@@H](CCl)c4c3cc(OC(C)=O)c3scc(C)c43)(C1)C2` [Compound 7, (8S,8'S)-(bicyclo[1.1.1]pentane-1,3-dicarbonyl)bis(8-(chloromethyl)-1-methyl-7,8-dihydro-6H-thieno[3,2-e]indole-6,4-diyl) diacetate], the figures for the IC50 (in experiment [1]; in experiment [2]; in the experiment on HL60 (leukemia)) were 0.022 nM, 0.185 nM and less than 0.005 nM, respectively.

On to `CC(=O)Oc1cc2c(c3c(C)csc13)[C@@H](CCl)CN2C(=O)C12CC(C(=O)N3C[C@H](CCl)c4c3cc(OC(C)=O)c3scc(C)c43)(C1)C2` [Compound 12, (8R,8'R)-(bicyclo[1.1.1]pentane-1,3-dicarbonyl)bis(8-(chloromethyl)-1-methyl-7,8-dihydro-6H-thieno[3,2-e]indole-6,4-diyl) diacetate], for which the IC50 in experiment [1] stood at 2.26 nM; in experiment [2], 5.08 nM; with HL60 (leukemia), 0.18 nM.

Turning to `CC(=O)Oc1cc2c(c3sc(C)cc13)[C@H](CCl)CN2C(=O)C12CC(C(=O)N3C[C@@H](CCl)c4c3cc(OC(C)=O)c3cc(C)sc43)(C1)C2` [Compound 17, bicyclo[1.1.1]pentane-1,3-diylbis[carbonyl(8S)-8-(chloromethyl)-2-methyl-7,8-dihydro-6H-thieno[2,3-e]indole-6,4-diyl] diacetate], the IC50 was determined as 1.3 nM in experiment [1], 6.06 nM in experiment [2] and 0.084 nM in the experiment on HL60 (leukemia).

Consider `CC(=O)Oc1cc2c(c3c(C)csc13)[C@H](CCl)CN2C(=O)CCCC(=O)N1C[C@@H](CCl)c2c1cc(OC(C)=O)c1scc(C)c21` [Compound 24, (8S,8'S)-glutaroylbis(8-(chloromethyl)-1-methyl-7,8-dihydro-6H-thieno[3,2-e]indole-6,4-diyl) diacetate], for which the values for the IC50 (in experiment [1]; in experiment [2]; in the experiment on HL60 (leukemia)) were 0.024 nM, 0.171 nM and less than 0.005 nM, respectively.

Regarding `CC(=O)Oc1cc2c(c3c(C)csc13)[C@@H](CCl)CN2C(=O)CCCC(=O)N1C[C@H](CCl)c2c1cc(OC(C)=O)c1scc(C)c21` [Compound 25, (8R,8'R)-glutaroylbis(8-(chloromethyl)-1-methyl-7,8-dihydro-6H-thieno[3,2-e]indole-6,4-diyl) diacetate], the IC50 was 41.6 nM in experiment [1] and more than 100 nM in experiment [2].

Consider `Cc1csc2c(O)cc3c(c12)[C@H](CCl)CN3C(=O)CCCC(=O)N1C[C@@H](CCl)c2c1cc(O[C@@H]1O[C@H](C(=O)O)[C@@H](O)[C@H](O)[C@H]1O)c1scc(C)c21` [Compound 57, (8S)-8-(chloromethyl)-6-{5-[(8S)-8-(chloromethyl)-4-hydroxy-1-methyl-7,8-dihydro-6H-thieno[3,2-e]indol-6-yl]-5-oxopentanoyl}-1-methyl-7,8-dihydro-6H-thieno[3,2-e]indol-4-yl beta-D-glucopyranosiduronic acid], for which the values for the IC50 (in experiment [1]; in experiment [2]; in the experiment on HL60 (leukemia)) were 11 nM, 37.6 nM and 0.873 nM, respectively.

`Cc1csc2c(O)cc3c(c12)[C@H](CCl)CN3C(=O)CCCC(=O)N1C[C@@H](CCl)c2c1cc(OP(=O)(O)O)c1scc(C)c21` [Compound 61, (8S)-8-(chloromethyl)-6-{5-[(8S)-8-(chloromethyl)-4-hydroxy-1-methyl-7,8-dihydro-6H-thieno[3,2-e]indol-6-yl]-5-oxopentanoyl}-1-methyl-7,8-dihydro-6H-thieno[3,2-e]indol-4-yl dihydrogen phosphate]: the 50% inhibitory concentration (IC50) is 13.6 nM in experiment [1], 28.6 nM in experiment [2] and 0.806 nM in the experiment with HL60 (leukemia).
